Data on nine molecules can be found in patent US20240342292A1, “Compounds for the Degradation of EGFR Kinase” (BeiGene Switzerland GmbH, priority 2021, published 2024).

Molecules are shown by their SMILES.

Assay [1] has as its system Del19/T790M/C797S EGFR. The experiment in a line: EGFR degradation HTRF assay in H1975-clone #28 (DTC) cells. The class given is cell-based. The following applies: H1975 # 28 DTC (Del19/T790M/C797S), 16h treatment; for DC50: HTRF; for Dmax (%): maximum percentage of degradation. The essentials:
(§1)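 H1975 clones with endogenous EGFR knocked out and lentivirally expressed mutant EGFR treated 16 h at 37 °C with compounds, 8 doses from 10 uM, 5-fold dilutions, 0.2% DMSO. Lysates read by HTRF (665/620 nm) overnight; DC50 from four-parameter fit.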

Assay [2] addresses T1, L858R/T790M/C797S EGFR (Homo sapiens, UniProt P00533, C797S/L858R/T790M).
T1 construct: expressed in transfected cells; host or cells: H1975 clone #25 (lentiviral over-expression, endogenous EGFR knocked out by sgRNA)
The assay can be described thus: EGFR degradation HTRF assay in H1975-clone #25 (LTC) cells. As to conditions: 16h treatment; for DC50: H1975 # 25-LTC (L858R/T790M/C797S), HTRF; for Dmax: NCI-H1975, H1975 # 25-LTC (L858R/T790M/C797S), maximum percentage of degradation. The class given is cell-based. In outline:
as §1

T1 sequence (P00533 25-1210 T790M/C797S/L858R): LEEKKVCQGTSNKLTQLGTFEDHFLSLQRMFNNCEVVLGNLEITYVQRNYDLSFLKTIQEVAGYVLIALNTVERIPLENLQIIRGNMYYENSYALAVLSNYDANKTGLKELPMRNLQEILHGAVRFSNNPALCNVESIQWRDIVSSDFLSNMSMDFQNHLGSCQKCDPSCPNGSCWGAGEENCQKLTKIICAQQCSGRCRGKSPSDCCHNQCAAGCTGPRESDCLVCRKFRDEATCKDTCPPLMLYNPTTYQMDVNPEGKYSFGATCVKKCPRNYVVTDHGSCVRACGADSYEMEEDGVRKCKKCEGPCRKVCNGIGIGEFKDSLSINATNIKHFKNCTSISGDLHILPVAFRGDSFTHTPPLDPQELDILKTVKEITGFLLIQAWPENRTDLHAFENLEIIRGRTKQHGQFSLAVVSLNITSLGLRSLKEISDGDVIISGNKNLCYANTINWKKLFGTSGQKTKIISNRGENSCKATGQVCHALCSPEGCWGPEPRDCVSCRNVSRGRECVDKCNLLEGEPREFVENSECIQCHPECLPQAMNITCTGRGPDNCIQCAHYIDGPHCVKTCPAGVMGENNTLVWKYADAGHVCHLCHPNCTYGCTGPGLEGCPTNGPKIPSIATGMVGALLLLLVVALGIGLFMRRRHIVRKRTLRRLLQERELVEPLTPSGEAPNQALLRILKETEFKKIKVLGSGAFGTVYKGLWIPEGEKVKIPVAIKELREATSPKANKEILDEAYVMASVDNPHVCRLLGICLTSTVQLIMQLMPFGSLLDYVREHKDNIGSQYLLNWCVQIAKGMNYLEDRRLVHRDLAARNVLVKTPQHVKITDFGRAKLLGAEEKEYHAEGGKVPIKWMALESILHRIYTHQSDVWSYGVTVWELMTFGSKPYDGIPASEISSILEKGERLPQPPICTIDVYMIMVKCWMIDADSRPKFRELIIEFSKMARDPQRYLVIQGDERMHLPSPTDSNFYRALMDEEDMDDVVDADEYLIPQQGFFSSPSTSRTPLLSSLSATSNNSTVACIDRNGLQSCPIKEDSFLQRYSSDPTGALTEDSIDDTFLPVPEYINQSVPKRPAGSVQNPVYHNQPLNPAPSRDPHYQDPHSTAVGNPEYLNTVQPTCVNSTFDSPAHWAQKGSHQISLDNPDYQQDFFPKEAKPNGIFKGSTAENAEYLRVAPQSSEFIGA

For `Cc1cc2cc(n1)-c1cnn(C)c1OCCC[C@@H](C)CN1/C(=N/C2=O)Nc2ccc(C(=O)N(C)CCN3CCN(c4cc(F)c([C@H]5CCC(=O)NC5=O)c(F)c4)CC3)cc21` [Example 280, (R,E)-N-(2-(4-(4-((R)-2,6-dioxopiperidin-3-yl)-3,5-difluorophenyl)piperazin-1-yl)ethyl)-N,1^1,2^6,7-tetramethyl-3-oxo-5^2,5^3-dihydro-1^1H,5^1H-11-oxa-4-aza-5(2,1)-benzo[d]imidazola-2(2,4)-pyridina-1(4,5)-pyrazolacycloundecaphane-5^6-carboxyamide], in assay [1], the DC50 was 0.657 nM and the “Dmax (%)” value worked out at 77.24%. Moreover, in assay [2], the DC50 came out at 0.44 nM and the Dmax was found to be 88.5%.

In the case of `Cc1cc2cc(n1)-c1cnn(C)c1OCCC[C@@H](C)CN1/C(=N/C2=O)Nc2ccc(CN3CCC(N4CCN(C5CN(c6cc(F)c([C@H]7CCC(=O)NC7=O)c(F)c6)C5)CC4)CC3)cc21` [Example 18, (R)-3-(2,6-difluoro-4-(3-(4-(1-(((R,E)-1^1,2^6,7-trimethyl-3-oxo-5^2,5^3-dihydro-1^1H,5^1H-11-oxa-4-aza-5(2,1)-benzo[d]imidazola-2(2,4)-pyridina-1(4,5)-pyrazolacycloundecaphane-5^6-yl)methyl)piperidin-4-yl)piperazin-1-yl)azetidin-1-yl)phenyl)piperidine-2,6-dione], in assay [1], the DC50 amounted to 2.1 nM and the “Dmax (%)” value was 75.8%. In assay [2], this molecule returned a half-maximal degradation concentration (DC50) of 4.4 nM and a Dmax of 87.4%.

As for `Cc1cc2cc(n1)-c1cnn(C)c1OCCC[C@@H](C)CN1/C(=N/C2=O)Nc2ccc(CN3CC4(C3)CN(C(=O)C3CN(c5cc(F)c([C@H]6CCC(=O)NC6=O)c(F)c5)C3)C4)cc21` [Example 79, (R)-3-(2,6-difluoro-4-(3-(6-(((R,E)-1^1,2^6,7-trimethyl-3-oxo-5^2,5^3-dihydro-1^1H,5^1H-11-oxa-4-aza-5(2, 1)-benzo[d]imidazola-2(2,4)-pyridina-1(4,5)-pyrazolacycloundecaphane-5^6-yl)methyl)-2,6-diazaspiro[3.3]heptane-2-carbonyl)azetidin-1-yl)phenyl)piperidine-2,6-dione], in assay [1], half-maximal degradation (DC50) was put at 0.7 nM and the “Dmax (%)” value turned out to be 82.2%. In assay [2], this molecule showed a DC50 of 0.6 nM and a Dmax of 90.6%.

`Cc1cc2cc(n1)-c1cnn(C)c1OCCC[C@@H](C)CN1/C(=N/C2=O)Nc2ccc(C(=O)N3CC[C@H]4CN(CCc5cc(F)c([C@H]6CCC(=O)NC6=O)c(F)c5)CC[C@H]43)cc21` [Example 304, (R)-3-(2,6-difluoro-4-(2-((3aS,7aR)-1-((R,E)-1^1,2^6,7-trimethyl-3-oxo-5^2,5^3-dihydro-1^1H,5^1H-11-oxa-4-aza-5(2,1)-benzo[d]imidazola-2(2,4)-pyridina-1(4,5)-pyrazolacycloundecaphane-5^6-carbonyl)octahydro-5H-pyrrolo[3,2-c]pyridin-5-yl)ethyl)phenyl)piperidine-2,6-dione]: in assay [1], the DC50 came to 0.595 nM and the “Dmax (%)” value is recorded as 78.73%. Moreover, in assay [2], the half-maximal degradation concentration (DC50) was 0.61 nM and the Dmax amounted to 79.9%.

Take `Cc1cc2cc(n1)-c1cnn(C)c1OCC[C@H]1C[C@@H]1CN1/C(=N/C2=O)Nc2ccc(N3CCN(C4CCN(c5cnc(C6CCC(=O)NC6=O)cc5C)CC4)CC3)cc21` (stereo partly drawn) [Example 463, 3-(5-(4-(4-((7'S,7^2R,E)-1^1,2^6-dimethyl-3-oxo-5^2,5^3-dihydro-1^1H,5^1H-10-oxa-4-aza-5(2,1)-benzo[d]imidazola-2(2,4)-pyridina-1(4,5)-pyrazola-7(1,2)-cyclopropanacyclodecaphane-5^6-yl)piperazin-1-yl)piperidin-1-yl)-4-methylpyridin-2-yl)piperidine-2,6-dione]: in assay [1], the DC50 amounted to 0.604 nM and the “Dmax (%)” value is given as 90.22%. Also, in assay [2], it took 0.624 nM to reach half-maximal degradation (DC50) and the Dmax was determined as 91.8%.

In the case of `CO[C@H]1CN(CCc2cc(F)c([C@H]3CCC(=O)NC3=O)c(F)c2)CC[C@H]1NC(=O)c1ccc2c(c1)N1C[C@H](C)CCCOc3c(cnn3C)-c3cc(cc(C)n3)C(=O)/N=C/1N2` [Example 244, (R,E)-N-((3S,4R)-1-(4-((R)-2,6-dioxopiperidin-3-yl)-3,5-difluorophenethyl)-3-methoxypiperidin-4-yl)-1^1,2^6,7-trimethyl-3-oxo-5^2,5^3-dihydro-1^1H,5^1H-li-oxa-4-aza-5(2,1)-benzo[d]imidazola-2(2,4)-pyridina-1(4,5)-pyrazolacycloundecaphane-5^6-carboxamide], in assay [1], the DC50 came out at 0.548 nM and the “Dmax (%)” value amounted to 78.89%. Besides, in assay [2], it took 0.167 nM to reach half-maximal degradation (DC50) and the Dmax amounted to 95.3%.

Turning to `Cc1cc2cc(n1)-c1cnn(C)c1OCCC[C@@H](C)CN1/C(=N/C2=O)Nc2ccc(CN3CCN(C(=O)[C@@H]4CCN(c5cc(F)c([C@H]6CCC(=O)NC6=O)c(F)c5)C4)C[C@@H]3CO)cc21` [Example 195, (R)-3-(2,6-difluoro-4-((R)-3-((R)-3-(hydroxymethyl)-4-(((R,E)-1^1,2^5,7-trimethyl-3-oxo-5^2,5^3-dihydro-1^1H,5^1H-11-oxa-4-aza-5(2,1)-benzo[d]imidazola-2(2,4)-pyridina-(4,5)-pyrazolacycloundecaphane-5^6-yl)methyl)piperazine-1-carbonyl)pyrrolidin-1-yl)phenyl)piperidine-2,6-dione], in assay [1], the DC50 was found to be 0.712 nM and the “Dmax (%)” value was determined as 76.37%. In assay [2], this molecule gave a DC50 of 0.731 nM and a Dmax of 85.5%.

As for `Cc1cc2cc(n1)-c1cnn(C)c1OCCC[C@@H](C)CN1/C(=N/C2=O)Nc2ccc(N3CCN(C4CCN(c5cc(F)c([C@H]6CCC(=O)NC6=O)c(F)c5)CC4)[C@@H](CC#N)C3)cc21` [Example 452, 2-((S)-1-(1-(4-((R)-2,6-dioxopiperidin-3-yl)-3,5-difluorophenyl)piperidin-4-yl)-4-((R,E)-1^1,2^6,7-trimethyl-3-oxo-5^2,5^3-dihydro-1^1H,5^1H-11-oxa-4-aza-5(2,1)-benzo[d]imidazola-2(2,4)-pyridina-1(4,5)-pyrazolacycloundecaphane-5^6-yl)piperazin-2-yl)acetonitrile], in assay [1], the DC50 was determined as 1.29 nM and the “Dmax (%)” value is 75.73%. In assay [2], the DC50 was found to be 0.98 nM and the Dmax amounted to 78.5%.

As for `COC[C@H]1CN(C(=O)C2CCN(c3ccc4c(c3)N3C[C@H](C)CCCOc5c(cnn5C)-c5cc(cc(C)n5)C(=O)/N=C/3N4)CC2)CCN1c1cc(F)c([C@H]2CCC(=O)NC2=O)c(F)c1` [Example 363, (R)-3-(2,6-difluoro-4-((R)-2-(methoxymethyl)-4-(1-((R,E)-1^1,2^6,7-trimethyl-3-oxo-5^2,5^3-dihydro-1^1H,5^1H-11-oxa-4-aza-5(2,1)-benzo[d]imidazola-2(2,4)-pyridina-1(4,5)-pyrazolacycloundecaphane-5^6-yl)piperidine-4-carbonyl)piperazin-1-yl)phenyl)piperidine-2,6-Dione], in assay [1], it took 0.614 nM to reach half-maximal degradation (DC50) and the “Dmax (%)” value is given as 78.54%. In addition, in assay [2], the DC50 amounted to 0.643 nM and the Dmax came to 87.5%.
